Test results as given in patent US20230295130A1, “COMPOUND USEFUL AS CDK7 KINASE INHIBITOR AND USE THEREOF” (TYK MEDICINES, INC., priority 2020, published 2023).

Key:
Assay in all cases: Enzyme activity test, mobility shift assay (Table 1)
Format in all cases: biochemical
[1] = molecular target: CDK12 (aa686-1082)/Cyclin K (Homo sapiens (Human), UniProt Q9NYV4); conditions: 2 mM ATP; read-out: CDK12 kinase IC50
Method: (§1) The compound powder was dissolved in 100% DMSO to prepare a 10 mM storage solution. The storage solution was further diluted to 0.5 mM as the initial concentration, and continuously diluted 3 times to obtain 10 compound solutions with different concentrations. The compound and enzyme were pre-incubated for 0 minutes and 60 minutes, respectively, using duplicate detection. Compound Staurosporine having a structural formula of
(§2) was used as a positive control, and Mobility shift assay method was used to detect CDK kinase (such as CDK7, CDK9, CDK12 and CDK2) activity of the compounds.

[2] = molecular target: CDK7/Cyclin H/MAT1 kinase (Homo sapiens (Human), UniProt P50613); conditions: 2 mM ATP; pre-incubated 0 and 60 minutes
Method: IC50 values of the compounds for CDK7 kinase were detected in Wuxi Biortus Biosciences Co. Ltd.
as §1, with “detection.” for “detection. Compound Staurosporine having a structural formula of”
as §2

CDK2/Cyclin El = CDK2/Cyclin El (Homo sapiens (Human), UniProt P24941); conditions: 2 mM ATP; read-out: CDK2 kinase IC50
Method: as §1, with “detection.” for “detection. Compound Staurosporine having a structural formula of”
as §2

CDK9/Cyclin Tl = CDK9/Cyclin Tl (Homo sapiens (Human), UniProt P50750); conditions: 2 mM ATP; read-out: CDK9 kinase IC50
Method: as §1, with “detection.” for “detection. Compound Staurosporine having a structural formula of”
as §2

Sequence of CDK9/Cyclin Tl (P50750 whole entry): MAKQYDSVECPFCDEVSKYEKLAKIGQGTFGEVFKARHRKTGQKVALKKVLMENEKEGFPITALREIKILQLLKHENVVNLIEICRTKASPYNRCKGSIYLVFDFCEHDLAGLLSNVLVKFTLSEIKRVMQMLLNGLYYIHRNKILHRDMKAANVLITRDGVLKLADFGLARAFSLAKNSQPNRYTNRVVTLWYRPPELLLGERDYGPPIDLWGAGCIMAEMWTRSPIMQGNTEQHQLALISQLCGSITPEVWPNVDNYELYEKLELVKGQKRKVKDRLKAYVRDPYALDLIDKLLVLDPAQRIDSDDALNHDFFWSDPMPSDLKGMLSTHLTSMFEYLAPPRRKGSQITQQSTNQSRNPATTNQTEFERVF
Sequence of CDK9/Cyclin Tl (O60563 whole entry partner): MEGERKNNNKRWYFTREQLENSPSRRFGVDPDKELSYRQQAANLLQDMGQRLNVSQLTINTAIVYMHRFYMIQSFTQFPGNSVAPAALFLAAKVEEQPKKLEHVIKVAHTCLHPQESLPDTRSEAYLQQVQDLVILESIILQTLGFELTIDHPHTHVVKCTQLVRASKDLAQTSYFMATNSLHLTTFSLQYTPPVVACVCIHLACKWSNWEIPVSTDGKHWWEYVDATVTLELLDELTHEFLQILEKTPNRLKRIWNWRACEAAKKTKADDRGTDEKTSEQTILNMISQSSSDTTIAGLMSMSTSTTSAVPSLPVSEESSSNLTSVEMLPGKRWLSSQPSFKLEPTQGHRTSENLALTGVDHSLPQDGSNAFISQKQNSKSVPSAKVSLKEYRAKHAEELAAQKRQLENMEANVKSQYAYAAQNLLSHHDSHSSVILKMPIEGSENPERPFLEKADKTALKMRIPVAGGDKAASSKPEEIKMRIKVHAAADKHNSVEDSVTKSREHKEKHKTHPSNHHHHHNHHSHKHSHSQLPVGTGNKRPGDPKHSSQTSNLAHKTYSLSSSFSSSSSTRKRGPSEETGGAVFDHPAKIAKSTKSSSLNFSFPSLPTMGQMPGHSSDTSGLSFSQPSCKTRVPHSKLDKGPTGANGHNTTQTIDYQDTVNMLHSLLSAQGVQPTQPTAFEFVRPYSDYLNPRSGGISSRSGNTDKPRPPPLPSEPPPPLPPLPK
Sequence of CDK7/Cyclin H/MAT1 kinase (P50613 whole entry): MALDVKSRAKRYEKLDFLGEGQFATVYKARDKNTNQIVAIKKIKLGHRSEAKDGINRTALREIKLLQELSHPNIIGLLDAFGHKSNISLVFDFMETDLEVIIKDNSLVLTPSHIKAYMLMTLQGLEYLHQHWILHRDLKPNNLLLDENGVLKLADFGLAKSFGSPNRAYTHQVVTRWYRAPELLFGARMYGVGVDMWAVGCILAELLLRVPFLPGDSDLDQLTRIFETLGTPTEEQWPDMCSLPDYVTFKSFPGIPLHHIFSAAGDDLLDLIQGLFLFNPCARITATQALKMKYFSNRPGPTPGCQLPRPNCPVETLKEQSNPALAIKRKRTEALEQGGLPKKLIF
Sequence of CDK7/Cyclin H/MAT1 kinase (P51946 whole entry partner): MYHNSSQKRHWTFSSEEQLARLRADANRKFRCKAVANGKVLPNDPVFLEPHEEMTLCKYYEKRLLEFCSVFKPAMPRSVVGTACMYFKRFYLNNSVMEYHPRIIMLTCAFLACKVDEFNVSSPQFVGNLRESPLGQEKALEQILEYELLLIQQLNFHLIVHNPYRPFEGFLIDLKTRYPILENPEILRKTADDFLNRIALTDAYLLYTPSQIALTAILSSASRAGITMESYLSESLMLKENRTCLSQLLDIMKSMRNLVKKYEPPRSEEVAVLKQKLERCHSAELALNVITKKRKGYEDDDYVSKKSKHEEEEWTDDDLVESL
Sequence of CDK7/Cyclin H/MAT1 kinase (P51948 whole entry partner): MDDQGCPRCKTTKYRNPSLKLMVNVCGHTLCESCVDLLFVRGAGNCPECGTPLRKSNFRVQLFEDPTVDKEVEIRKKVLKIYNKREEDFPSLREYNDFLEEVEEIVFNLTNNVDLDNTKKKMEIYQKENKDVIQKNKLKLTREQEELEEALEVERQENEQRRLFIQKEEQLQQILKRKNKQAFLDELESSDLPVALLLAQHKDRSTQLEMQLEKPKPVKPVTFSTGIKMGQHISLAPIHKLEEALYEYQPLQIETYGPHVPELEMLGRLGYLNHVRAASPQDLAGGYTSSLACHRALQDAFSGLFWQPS
Sequence of CDK12 (aa686-1082)/Cyclin K (Q9NYV4 686-1082): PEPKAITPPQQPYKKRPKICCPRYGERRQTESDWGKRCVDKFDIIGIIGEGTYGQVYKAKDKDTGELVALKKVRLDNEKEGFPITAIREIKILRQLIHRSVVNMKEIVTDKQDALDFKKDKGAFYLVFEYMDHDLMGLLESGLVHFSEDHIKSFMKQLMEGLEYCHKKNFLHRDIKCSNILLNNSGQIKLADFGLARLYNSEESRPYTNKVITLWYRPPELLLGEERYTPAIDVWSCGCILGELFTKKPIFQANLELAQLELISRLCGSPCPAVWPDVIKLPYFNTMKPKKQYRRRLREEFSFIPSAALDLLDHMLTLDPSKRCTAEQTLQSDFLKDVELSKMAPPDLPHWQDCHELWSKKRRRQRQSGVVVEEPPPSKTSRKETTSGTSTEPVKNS
Sequence of CDK12 (aa686-1082)/Cyclin K (O75909 whole entry partner, the tested form may be a part): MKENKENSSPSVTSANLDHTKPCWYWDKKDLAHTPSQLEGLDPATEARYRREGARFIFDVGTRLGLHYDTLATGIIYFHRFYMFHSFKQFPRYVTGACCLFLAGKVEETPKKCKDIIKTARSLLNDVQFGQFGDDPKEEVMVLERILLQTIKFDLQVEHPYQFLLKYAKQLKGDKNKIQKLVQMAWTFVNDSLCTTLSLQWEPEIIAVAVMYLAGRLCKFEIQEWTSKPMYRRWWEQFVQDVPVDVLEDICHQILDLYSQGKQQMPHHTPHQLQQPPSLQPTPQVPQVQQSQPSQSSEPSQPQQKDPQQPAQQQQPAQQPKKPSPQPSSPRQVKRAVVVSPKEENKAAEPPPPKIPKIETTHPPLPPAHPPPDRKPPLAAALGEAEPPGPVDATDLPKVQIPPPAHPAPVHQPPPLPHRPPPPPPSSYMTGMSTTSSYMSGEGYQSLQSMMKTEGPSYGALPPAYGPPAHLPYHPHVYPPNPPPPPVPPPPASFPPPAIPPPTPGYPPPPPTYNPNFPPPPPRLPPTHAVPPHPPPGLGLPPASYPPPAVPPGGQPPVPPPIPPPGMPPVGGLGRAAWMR

SMILES	IC50 [1]	IC50 [2]	IC50 (CDK2/Cyclin El)	IC50 (CDK9/Cyclin Tl)
COC(=O)Nc1ccc2c(-c3nc(N[C@H]4CCC(C)(C)NC4)ncc3C(F)(F)F)c[nH]c2c1Cl [Example T-80]	> 500 nM	< 50 nM	> 500 nM	> 500 nM
COC(=O)Nc1ccc2c(-c3nc(N[C@H]4CC[C@H](C)NC4)ncc3C(F)(F)F)c[nH]c2c1C1CC1 [Example T-131]	> 500 nM	50 to 500 nM	> 500 nM	> 500 nM
O=C(Nc1ccc2c(-c3nc(N[C@H]4CCCNC4)ncc3C(F)(F)F)c[nH]c2c1)C1CC1 [Example T-11]	> 500 nM	< 50 nM	> 500 nM	> 500 nM
COC(=O)Nc1ccc2c(-c3nc(N[C@H]4CCCN(C)C4)ncc3C(F)(F)F)c[nH]c2c1Cl [Example T-168]	> 500 nM	< 50 nM	> 500 nM	> 500 nM
COC(=O)Nc1ccc2c(-c3nc(N[C@H]4CCC(C)(C)NC4)ncc3Cl)c[nH]c2c1OCC(F)(F)F [Example T-85]	> 500 nM	< 50 nM	> 500 nM	> 500 nM
CCOC(=O)Nc1ccc2c(-c3nc(N[C@H]4CCCNC4)ncc3C(F)(F)F)c[nH]c2c1C1CC1 [Example T-127]	> 500 nM	< 50 nM	> 500 nM	> 500 nM
COC(=O)Nc1ccc2c(-c3nc(N[C@H]4CCCNC4)ncc3C(F)(F)F)c[nH]c2c1[S+]([O-])C(C)C (some centres unmarked) [Example T-65]	> 500 nM	< 50 nM	> 500 nM	> 500 nM
COC(=O)Nc1ccc2c(-c3nc(N[C@H]4CCC(C)(C)NC4)ncc3C(F)(F)F)c[nH]c2c1C(F)F [Example T-107]	> 500 nM	< 50 nM	> 500 nM	> 500 nM
COC(=O)Nc1ccc2c(-c3nc(N[C@H]4CCC[C@@H](O)C4)ncc3C(F)(F)F)c[nH]c2c1Br [Example T-29]	> 500 nM	> 500 nM	> 500 nM	> 500 nM
COC(=O)Nc1ccc2c(-c3nc(N[C@H]4CCC(C)(C)NC4)ncc3C(F)(F)F)c[nH]c2c1C(C)(F)F [Example T-136]	> 500 nM	< 50 nM	> 500 nM	> 500 nM
COC(=O)Nc1ccc2c(-c3nc(N[C@H]4CCCNC4)ncc3C(F)(F)F)c[nH]c2c1 [Example T-16]	> 500 nM	< 50 nM	> 500 nM	> 500 nM
O=C1CCN1c1ccc2c(-c3nc(N[C@H]4CCCNC4)ncc3C(F)(F)F)c[nH]c2c1Br [Example T-18]	> 500 nM	< 50 nM	> 500 nM	> 500 nM
COC(=O)Nc1ccc2c(-c3nc(N[C@@H]4CCC[C@@H](N)C4)ncc3C(F)(F)F)c[nH]c2c1Br [Example T-23]	> 500 nM	50 to 500 nM	> 500 nM	> 500 nM
COC(=O)Nc1ccc2c(-c3nc(N[C@H]4CC[C@@H](C)NC4)ncc3C(F)(F)F)c[nH]c2c1C(F)(F)F [Example T-149]	> 500 nM	50 to 500 nM	> 500 nM	> 500 nM
COC(=O)Nc1ccc2c(-c3nc(NC4CC5(CNC5)C4)ncc3C(F)(F)F)c[nH]c2c1Br [Example T-19]	> 500 nM	< 50 nM	> 500 nM	> 500 nM
CC1(C)COC(Nc2ccc3c(-c4nc(N[C@H]5CCCNC5)ncc4C(F)(F)F)c[nH]c3c2Br)=N1 [Example T-07]	> 500 nM	< 50 nM	> 500 nM	> 500 nM
COC(=O)Nc1ccc2c(-c3nc(N[C@H]4CCCNC4)ncc3Br)c[nH]c2c1Br [Example T-75]	> 500 nM	< 50 nM	> 500 nM	> 500 nM
COC(=O)Nc1ccc2c(-c3nc(NC4CC5(CC(N)C5)C4)ncc3C(F)(F)F)c[nH]c2c1Br (centres unmarked) [Example T-31]	> 500 nM	< 50 nM	> 500 nM	> 500 nM
COC(=O)Nc1ccc2c(-c3nc(N[C@H]4[C@@H]5CNC[C@@H]54)ncc3C(F)(F)F)c[nH]c2c1Br [Example T-24]	> 500 nM	< 50 nM	> 500 nM	> 500 nM
COC(=O)N(C)c1ccc2c(-c3nc(N[C@H]4CCCNC4)ncc3C(F)(F)F)c[nH]c2c1C(F)(F)F [Example T-164]	> 500 nM	< 50 nM	> 500 nM	> 500 nM
COC(=O)Nc1ccc2c(-c3nc(N[C@H]4CCCNC4)ncc3C(F)(F)F)c[nH]c2c1OCC(F)(F)F [Example T-139]	> 500 nM	< 50 nM	> 500 nM	> 500 nM

SMILES	IC50 [1]	IC50 [2]	IC50 (CDK2/Cyclin El)	IC50 (CDK9/Cyclin Tl)
COC(=O)N(C)c1ccc2c(-c3nc(N[C@H]4CCCNC4)ncc3C(F)(F)F)c[nH]c2c1Cl [Example T-162]	> 500 nM	< 50 nM	> 500 nM	> 500 nM
COC(=O)Nc1ccc2c(-c3nc(N[C@H]4CCCNC4)ncc3C(F)(F)F)c[nH]c2c1C(C)C [Example T-69]	> 500 nM	< 50 nM	> 500 nM	> 500 nM
CC(=O)Nc1ccc2c(-c3nc(N[C@H]4CCCNC4)ncc3C(F)(F)F)c[nH]c2c1P(C)(C)=O [Example T-15]	> 500 nM	< 50 nM	> 500 nM	> 500 nM
O=C1OCCN1c1ccc2c(-c3nc(N[C@H]4CCCNC4)ncc3C(F)(F)F)c[nH]c2c1Br [Example T-12]	> 500 nM	< 50 nM	> 500 nM	> 500 nM
COC(=O)N(C)c1ccc2c(-c3nc(N[C@H]4CCCNC4)ncc3C(F)(F)F)c[nH]c2c1C(F)F [Example T-163]	> 500 nM	< 50 nM	> 500 nM	> 500 nM
O=C1CCCN1c1ccc2c(-c3nc(N[C@H]4CCCNC4)ncc3C(F)(F)F)c[nH]c2c1Br [Example T-04]	> 500 nM	< 50 nM	> 500 nM	> 500 nM
CCOc1c(NC(=O)OC)ccc2c(-c3nc(N[C@H]4CCCN(C)C4)ncc3C(F)(F)F)c[nH]c12 [Example T-161]	> 500 nM	< 50 nM	> 500 nM	> 500 nM
COC(=O)Nc1ccc2c(-c3nc(N[C@H]4CCCNC4)ncc3C(F)(F)F)c[nH]c2c1P(C)(C)=O [Example T-14]	> 500 nM	< 50 nM	> 500 nM	> 500 nM
COC(=O)Nc1ccc2c(-c3nc(N[C@H]4CCC(C)(C)NC4)ncc3C(F)(F)F)c[nH]c2c1C1CC(F)(F)C1 [Example T-106]	> 500 nM	< 50 nM	> 500 nM	> 500 nM
COC(=O)Nc1ccc2c(-c3nc(N[C@H]4CCCNC4)ncc3C(F)(F)F)c[nH]c2c1SC(C)C [Example T-66]	> 500 nM	< 50 nM	> 500 nM	> 500 nM
O=C1OCCCN1c1ccc2c(-c3nc(N[C@H]4CCCNC4)ncc3C(F)(F)F)c[nH]c2c1Br [Example T-06]	> 500 nM	< 50 nM	> 500 nM	> 500 nM
COC(=O)Nc1ccc2c(-c3nc(N[C@H]4CC[C@@H](C)NC4)ncc3C(F)(F)F)c[nH]c2c1Br [Example T-143]	> 500 nM	50 to 500 nM	> 500 nM	> 500 nM
COC(=O)Nc1ccc2c(-c3nc(N[C@H]4CCCNC4)ncc3Cl)c[nH]c2c1C(F)(F)F [Example T-88]	> 500 nM	< 50 nM	> 500 nM	> 500 nM
COC(=O)Nc1ccc2c(-c3nc(N[C@H]4CCC[C@@H](N)C4)ncc3C(F)(F)F)c[nH]c2c1Br [Example T-21]	> 500 nM	50 to 500 nM	> 500 nM	> 500 nM
CC(=O)Nc1ccc2c(-c3nc(N[C@H]4CCCNC4)ncc3C(F)(F)F)c[nH]c2c1Br [Example T-09]	> 500 nM	< 50 nM	> 500 nM	> 500 nM
COC(=O)Nc1ccc2c(-c3nc(N[C@H]4CC[C@@H](C)NC4)ncc3C(F)(F)F)c[nH]c2c1OCC(F)(F)F [Example T-151]	> 500 nM	50 to 500 nM	> 500 nM	> 500 nM
O=C1CCCN1c1ccc2c(-c3nc(N[C@H]4CCCNC4)ncc3C(F)(F)F)c[nH]c2c1 [Example T-13]	> 500 nM	< 50 nM	> 500 nM	> 500 nM
COC(=O)Nc1ccc2c(-c3nc(N[C@H]4CCCNC4)ncc3C(F)(F)F)c[nH]c2c1-c1ccccc1 [Example T-60]	> 500 nM	< 50 nM	> 500 nM	> 500 nM
COC(=O)Nc1ccc2c(-c3nc(N[C@H]4CCCNC4)ncc3C(F)(F)F)c[nH]c2c1C1COC1 [Example T-84]	> 500 nM	< 50 nM	> 500 nM	> 500 nM
COC(=O)Nc1ccc2c(-c3nc(N[C@H]4CCCN(C)C4)ncc3C(F)(F)F)c[nH]c2c1C(F)F [Example T-169]	> 500 nM	< 50 nM	> 500 nM	> 500 nM
